Test results published in PMC9884089 (Journal of Medicinal Chemistry, 2023).
Read-outs that look alike come from different tables or passages of the source.

How the values were obtained:
[1] = molecular target: T1, PARP10 (Homo sapiens, UniProt Q53GL7); assay: Cellular MARylation assay (immunoblot of PARP10 auto-MARylation); format: cell-based; settings: 10 μM, 16 h, HeLa cells
T1 construct: made in house
T1 sequence (Q53GL7 1-1025): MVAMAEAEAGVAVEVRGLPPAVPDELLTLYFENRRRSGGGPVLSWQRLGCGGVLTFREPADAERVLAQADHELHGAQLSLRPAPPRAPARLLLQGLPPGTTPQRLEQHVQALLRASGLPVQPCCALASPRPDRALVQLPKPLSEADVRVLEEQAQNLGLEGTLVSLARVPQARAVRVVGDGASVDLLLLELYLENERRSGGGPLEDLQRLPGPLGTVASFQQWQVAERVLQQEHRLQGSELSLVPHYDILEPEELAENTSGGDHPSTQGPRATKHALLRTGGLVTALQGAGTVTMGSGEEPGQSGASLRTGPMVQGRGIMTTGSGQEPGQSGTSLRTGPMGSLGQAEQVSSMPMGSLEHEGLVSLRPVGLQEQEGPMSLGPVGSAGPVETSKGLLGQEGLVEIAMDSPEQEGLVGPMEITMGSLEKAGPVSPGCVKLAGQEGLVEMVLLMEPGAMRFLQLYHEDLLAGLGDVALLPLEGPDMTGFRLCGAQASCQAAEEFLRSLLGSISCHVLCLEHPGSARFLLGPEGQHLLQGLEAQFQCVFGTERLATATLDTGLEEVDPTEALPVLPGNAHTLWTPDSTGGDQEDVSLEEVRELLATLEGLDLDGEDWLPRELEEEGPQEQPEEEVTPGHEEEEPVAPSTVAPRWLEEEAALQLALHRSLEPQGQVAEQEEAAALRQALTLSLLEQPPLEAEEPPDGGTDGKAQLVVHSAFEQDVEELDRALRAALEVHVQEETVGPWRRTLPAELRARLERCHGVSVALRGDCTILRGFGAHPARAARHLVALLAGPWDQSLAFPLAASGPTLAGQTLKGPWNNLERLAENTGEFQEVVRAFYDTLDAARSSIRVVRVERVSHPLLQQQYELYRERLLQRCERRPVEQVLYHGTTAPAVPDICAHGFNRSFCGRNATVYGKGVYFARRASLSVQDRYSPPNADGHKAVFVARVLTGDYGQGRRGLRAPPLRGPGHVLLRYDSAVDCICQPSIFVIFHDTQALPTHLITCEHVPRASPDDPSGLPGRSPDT
Procedure: Cells were lysed in RIPA lysis buffer [10 mM Tris pH 7.4; 150 mM NaCl; 1% NP-40; 1% desoxycholate; 0,1% SDS; protease inhibitor cocktail (Sigma-Aldrich) and 10 μM olaparib (Selleck Chemicals)], and lysates were analyzed via SDS-PAGE and immunoblotting using specific anti-PARP10 (Eurogentec),[93] anti-MAR/PAR (Cell Signaling, E6F6A, anti-poly/Mono-ADP-ribose antibody), and anti-α-tubulin (B 5-1-2, Sigma-Aldrich) antibodies.

[2] = Thermodynamic water solubility; format: physicochemical; settings: distilled water, r.t.
Procedure: Each solid compound (1 mg) was added to 1 mL of distilled water. Each sample was mixed at r.t. in a shaker water bath 24 h. The resulting suspension was filtered through a 0.45 μm nylon filter (Acrodisc), and the solubilized compound was quantified in triplicate using UV/LC–MS method reported above by comparison with the appropriate calibration curve that was obtained from samples of the compound dissolved in methanol at different concentrations.[94]

[3] = molecular target: T2, TNKS2 (Homo sapiens, UniProt Q9H2K2); assay: biochemical; settings: read-out: TNKS2 IC50; > = less than 50% inhibition at highest concentration
T2 sequence (Q9H2K2 1-1166): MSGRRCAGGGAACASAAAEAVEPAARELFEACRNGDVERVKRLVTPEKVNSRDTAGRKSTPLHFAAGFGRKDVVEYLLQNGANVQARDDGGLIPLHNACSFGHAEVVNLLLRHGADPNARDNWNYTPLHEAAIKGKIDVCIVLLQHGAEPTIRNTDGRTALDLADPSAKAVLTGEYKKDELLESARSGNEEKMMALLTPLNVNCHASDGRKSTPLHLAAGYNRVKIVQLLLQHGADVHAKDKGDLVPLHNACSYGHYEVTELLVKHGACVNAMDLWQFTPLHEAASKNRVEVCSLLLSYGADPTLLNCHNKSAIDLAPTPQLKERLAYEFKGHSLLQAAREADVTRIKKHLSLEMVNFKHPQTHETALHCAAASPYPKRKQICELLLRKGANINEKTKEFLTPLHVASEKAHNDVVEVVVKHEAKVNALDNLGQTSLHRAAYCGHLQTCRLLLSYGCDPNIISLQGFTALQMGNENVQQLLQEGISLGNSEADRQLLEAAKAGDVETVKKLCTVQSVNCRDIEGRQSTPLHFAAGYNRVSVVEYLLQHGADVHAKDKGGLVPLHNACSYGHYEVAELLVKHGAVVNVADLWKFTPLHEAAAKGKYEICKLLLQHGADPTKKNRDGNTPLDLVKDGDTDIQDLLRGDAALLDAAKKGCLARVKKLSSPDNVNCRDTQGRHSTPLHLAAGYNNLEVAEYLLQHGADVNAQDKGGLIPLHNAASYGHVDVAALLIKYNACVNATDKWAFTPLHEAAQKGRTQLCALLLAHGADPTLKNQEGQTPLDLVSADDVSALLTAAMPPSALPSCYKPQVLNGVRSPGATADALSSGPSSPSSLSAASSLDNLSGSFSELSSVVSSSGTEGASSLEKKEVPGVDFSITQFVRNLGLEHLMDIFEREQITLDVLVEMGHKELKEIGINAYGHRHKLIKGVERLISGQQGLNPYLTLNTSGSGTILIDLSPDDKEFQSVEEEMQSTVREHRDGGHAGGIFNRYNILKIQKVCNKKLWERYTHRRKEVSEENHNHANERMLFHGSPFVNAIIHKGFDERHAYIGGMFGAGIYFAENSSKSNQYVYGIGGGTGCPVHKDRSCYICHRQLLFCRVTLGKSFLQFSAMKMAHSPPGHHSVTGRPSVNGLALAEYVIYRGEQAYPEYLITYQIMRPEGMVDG
Procedure: The proteins used in Tables 1–3 were produced as described earlier. Dockerin constructs to allow enhanced activity assays for mono-ARTs (Table 4) were produced in Escherichia coli with an N-terminal maltose binding protein (MBP) and a C-terminal dockerin domain from Hungateiclostridium thermocellum Cel48s as described recently.[47]
Inhibition experiments were performed using a homogenous assay measuring NAD+ consumption.[80]−[82] Reactions were carried out in quadruplicate, and IC50 curves were fitted using sigmoidal dose response curve (four variables) in GraphPad Prism version 8.02. […] Assay conditions for PARP2, TNKS2, PARP10, and PARP15 (Tables 1–3) were recently reported.[44] The conditions for the proximity-enhanced mono-ART assays (Table 4) were also reported recently.[47] PARP6 (400 nM) inhibition was measured using the standard buffer (50 mM sodium phosphate pH 7.0) for the enhanced activity assay using 500 nM NAD^+ and 18 h incubation in r.t..

[4] = read-out: water solubility (log s) (converted)

Compound	inhibition of auto-MARylation of overexpressed PARP10 in cells [1]	solubility at 24 h ([2]; read-out: water solubility) [mg/mL]	solubility at 24 h [2, 4] [µM]	IC50 [3] [µM]
Cc1ccc2c(c1)sc1nnc(N)n12 [Compound 21, 7-Methyl[1,2,4]triazolo[3,4-b][1,3]benzothiazol-3-amine]	effectively inhibited	0.0376	184	5.7
COc1ccc(OC)c2c1sc1nnc(N)n12 [Compound 27, 5,8-Dimethoxy[1,2,4]triazolo[3,4-b][1,3]benzothiazol-3-amine]	effectively inhibited	0.0126	50.4	10
